Laboratory results taken from patent US10112933B2, “Methods and compositions for treatment of fibrosis” (Baylor College of Medicine, priority 2013, dated 2018).

Test system: MEF/GFP-Stat3α cells
Test: HTFM cytoplasmic-to-nuclear translocation of GFP-Stat3α
Type: cell-based, murine
Settings: for IC50: Mus musculus, 0.5 h, MEF/GFP-Stat3α, IL-6 200 ng/ml and IL-6sR 250 ng/ml 30 min, read-out: HTM IC50 (ligand-mediated nuclear translocation of GFP-Stat3α)
Experimental: Coverslips were examined by confocal fluorescent microscopy using filters to detect GFP (column one), DAPI (column two) or both (merge; column three). In panel B, MEF-GFP-Stat3 cells were grown in 96-well plates with optical glass bottoms and pretreated with the indicated compound at the indicated concentrations in quadruplicate for 1 hour then stimulated with IL-6 (200 ng/ml) and IL-6sR (250 ng/ml) for 30 minutes. Cells were fixed and the plates were examined by high-throughput microscopy to determine the fluorescence intensity in the nucleus (FLIN) and the % ΔFLINMax was calculated as described in Example 1. Data shown are mean±SD and are representative of 2 or more studies. Best-fit curves were generated based on 4 Parameter Logistic Model/Dose Response One Site/XLfit 4.2, IDBS and were used to calculate IC50 (Table 1).
Confocal and high-throughput fluorescence microscopy. Confocal and highthroughput fluorescence microscopy (HTFM) of MEF/GFP-Stat3α cells were performed as described (Huang et al., 2007). Briefly, for confocal fluorescence microscopy, cells were grown in 6-well plates containing a cover slip. For HTFM, cells were seeded into 96-well CC3 plates at a density of 5,000 cells/well using an automated plating system. Cells were cultured under standard conditions until 85-90% confluent. Cells were pretreated with compound for 1 hour at 37° C. then stimulated with IL-6 (200 ng/ml) and IL-6sR (250 ng/ml) for 30 minutes. Cells were fixed with 4% formaldehyde in PEM Buffer (80 mM Potassium PIPES, pH 6.8, 5 mM EGTA pH 7.0, 2 mM MgCl2) for 30 minutes at 4° C., quenched in 1 mg/ml of NaBH4 (Sigma) in PEM buffer and counterstained for 1 min in 4,6-diamidino-2-phenylindole (DAPI; Sigma; 1 mg/ml) in PEM buffer. Cover slips were examined by confocal fluorescent microscopy. Plates were analyzed by automated HTFM using the Cell Lab IC Image Cytometer (IC100) platform and CytoshopVersion 2.1 analysis software (Beckman Coulter). Nuclear translocation is quantified by using the fraction localized in the nucleus (FLIN) measurement (Sharp et al., 2006).
Following its phosphorylation on Y705, Stat3 undergoes a change in conformation from head-to-head dimerization mediated through its N-terminal oligomerization domain to tail-to-tail dimerization mediated by reciprocal SH2/pY705-peptide ligand interactions. This conformational change is followed by nuclear accumulation. Compounds that targeted SH2/pY-peptide ligand interactions of Stat3 would be expected to inhibit nuclear accumulation of Stat3. […]
EXP IIB. High throughput fluorescence microscopy (HTFM), cytoplasm-to-nucleus translocation inhibition assays. […] Plates are analyzed by automated HTFM using the Cell Lab IC Image Cytometer (IC100) platform and CytoshopVersion 2.1 analysis software (Beckman Coulter). […]

SMILES	IC50	blocked ligand-mediated nuclear translocation of GFP-Stat3 (MEF/GFP-Stat3α cells)
CCOc1cc(C=C2C(=O)c3ccccc3C2=O)cc(Cl)c1OCc1cccc(C(=O)O)c1 [Cpd3-2, 3-({2-chloro-4-[(1,3-dioxo-1,3-dihydro-2H-inden-2-ylidene)methyl]-6-ethoxyphenoxy}methyl)benzoic acid]	150 µM	
O=C(O)c1ccc(C=CC(=O)c2ccc3c(c2)OCCO3)cc1 [Cpd3, 4-[3-(2,3-dihydro-1,4-benzodioxin-6-yl)-3-oxo-1-propen-1-yl]benzoic acid]	131 µM	
CCN1C(=O)C(=Cc2ccc(-c3cc(C(=O)O)ccc3Cl)o2)C(=O)N(CC)C1=S [Cpd30-12, 4-chloro-3-{5-[(1,3-diethyl-4,6-dioxo-2-thioxotetrahydro-5(2H)-pyrimidinylidene)methyl]-2-furyl}benzoic acid]	> 300 µM	not
